Test results: US20120190752A1, “EXO-S-MECAMYLAMINE METHOD, USE, AND COMPOUND FOR TREATMENT” (Targacept Inc., priority 2009, published 2012)

Tested on: subjects with major depressive disorder (MDD) who were inadequate responders to citalopram
Experiment: Individual MADRS factor (subscale) scores, exploratory analysis
Type: in vivo, human
Experimental: In more detail, a multi-center double-blind, randomized, placebo-controlled, parallel group, flexible dose titration study of TC-5214 as adjunctive therapy in subjects with major depressive disorder (MDD) who were inadequate responders to citalopram was conducted in centers in the US and India. The study consisted of a screening period, baseline/washout period, open-label phase, double-blind phase, and a follow-up visit. Subject participation in the study could continue for up to 16 weeks of treatment. Following a washout period of up to 28 days for other antidepressants, subjects with MDD and a MADRS total score >/=28 and a Clinical Global Impression-Severity (CGI-S) score >/=4 were enrolled on Day 1 into an open-label citalopram-only phase of the study. This phase lasted 8 weeks, with citalopram (CIT) dose increased from a once-daily dose of 20 mg (Day 1 through Week 4) to 40 mg (Week 4 through Week 8). A total of 579 subjects entered the open-label citalopram phase. At Week 8, subjects who tolerated 40 mg CIT, but whose MADRS score was reduced <50% from baseline and no lower than 17, and CGI-S≧4, were considered inadequate responders. These subjects (n=270) were randomized in a double-blind fashion to receive either placebo or TC-5214-23 as add-on therapy to continued CIT. The double-blind phase of the study also lasted 8 weeks (Week 8 to Week 16). Study drug, TC-5214-23 or placebo, was started at 2 mg daily (1 mg twice per day [BID] dosing), added on to continuing CIT (40 mg PO qd). After 2 weeks of treatment, the dose of TC-5214 could be increased to 4 mg (2 mg BID) or continued unchanged, with up-titration based upon good tolerability and inadequate therapeutic response. After a further 2 weeks, the dose of TC-5214 could be increased again to 8 mg (4 mg BID) if judged appropriate by the investigator, based upon good tolerability and inadequate therapeutic response. At any time during the double-blind phase of the study, placebo or TC-5214-23 could be reduced to the previous dose level following the emergence of unacceptable adverse events (AEs). […] At this follow-up, any signs or symptoms of relapse were evaluated. If a subject was prematurely discontinued from the study between Week 8 and Week 16 for any reason, the investigator was to make every effort to perform all evaluations as per protocol, assuming the subject had reached the end of the double-blind add-on treatment phase. These evaluations were to be made as soon as possible and within 2 weeks of discontinuation. […] There was no meaningful difference in results as a function of age, gender, site, or smoking status. The exploratory analysis assessed the differences in the treatment groups in change from Week 8 (double-blind baseline) to Week 16 for each individual MADRS factor score.

[1] = ITT population, Week 8 (double-blind baseline) to Week 16

## CNC1(C)C2CCC(C2)C1(C)C (stereo in doubt) [TC-5214, (S)—N,2,3,3-tetramethylnorbornan-2-amine]
[1]
  MADRS item 1 Apparent Sadness: Adjusted Mean Change TC-5214—Placebo (SD): −0.88 (1.26)
  MADRS item 1 Apparent Sadness: Effect Size: 0.70
  MADRS item 2 Reported Sadness: Adjusted Mean Change TC-5214—Placebo (SD): −0.88 (1.28)
  MADRS item 2 Reported Sadness: Effect Size: 0.69
  MADRS item 3 Inner Tension: Adjusted Mean Change TC-5214—Placebo (SD): −0.79 (1.13)
  MADRS item 3 Inner Tension: Effect Size: 0.70
  MADRS item 4 Reduced Sleep: Adjusted Mean Change TC-5214—Placebo (SD): −0.99 (1.40)
  MADRS item 4 Reduced Sleep: Effect Size: 0.71
  MADRS item 5 Reduced Appetite: Adjusted Mean Change TC-5214—Placebo (SD): −0.76 (1.30)
  MADRS item 5 Reduced Appetite: Effect Size: 0.58
  MADRS item 6 Concentration Difficulties: Adjusted Mean Change TC-5214—Placebo (SD): −0.70 (1.20)
  MADRS item 6 Concentration Difficulties: Effect Size: 0.58
  MADRS item 7 Lassitude: Adjusted Mean Change TC-5214—Placebo (SD): −0.75 (1.20)
  MADRS item 7 Lassitude: Effect Size: 0.63
  MADRS item 8 Inability to Feel: Adjusted Mean Change TC-5214—Placebo (SD): −0.76 (1.25)
  MADRS item 8 Inability to Feel: Effect Size: 0.61
  MADRS item 9 Pessimistic Thoughts: Adjusted Mean Change TC-5214—Placebo (SD): −0.74 (1.18)
  MADRS item 9 Pessimistic Thoughts: Effect Size: 0.63
  MADRS item 10 Suicidal Thoughts: Adjusted Mean Change TC-5214—Placebo (SD): −0.29 (0.61)
  MADRS item 10 Suicidal Thoughts: Effect Size: 0.48
ITT, result in words
  each MADRS subscale score change from baseline compared with placebo: statistically significant decreases (improvements)
